Test results published in patent US8959984B2, “Proteome-wide quantification of small molecule binding to cellular target proteins” (priority 2007, dated 2015).
pKd: −log10 of the molar value. Like-named read-outs stand apart in the source and are kept apart here.

Assays:
[1] = target: GSK3A (Homo sapiens, UniProt P49840); experiment: binding to immobilized V16742 (IVA1/IVA2, HeLa lysate, MS)
[2] = target: CK1e (Homo sapiens, UniProt P49674); experiment: as above
Procedure: Using the three populations of SILAC-labelled cells and the three different inhibitor resins, two parallel experiments termed as IVA1 (In Vitro Association, Setting 1) and IVA2 (In Vitro Association, Setting 2) were performed. […] In IVA2, SILAC encoded HeLa cells lysates were subjected to two parallel rounds of consecutive affinity purification at the highest ligand density where the supernatant left behind after the first IVA was used for the second round of IVA. An additional incubation of Hela cell lysate with control beads devoid of immobilized inhibitor was also performed to distinguish background binders.
A common IPI identifier template was assigned to peptides based on the MASCOT html-output file for the IVA2 setting in first experiment. The proteins hits identified based on unique peptides were filtered for mass error and MASCOT score. Eventually, the hits identified in both first and second IVA2 experiments were quantified for IVA2 setting of first experiment by MSQuant. […] A next round of sorting was done to filter out protein hits that are less than 50% enriched in the IVA second round compared to IVA first round. This is because at enrichment below 50%, there could be significant errors in deducing kd values for the corresponding targets. […] The same set of targets was also quantified in IVA2 and IVA1 settings of an independent second experiment.

[3] = target: CaMK2g (CAMK2G) (Homo sapiens, UniProt Q13555)
[4] = target: NUDT12 (Homo sapiens, UniProt Q9BQG2)
[5] = target: T1, BUB1 (Homo sapiens, UniProt O43683); experiment: binding to immobilized V16742 (IVA1/IVA2, HeLa lysate, MS)
T1 construct: endogenous in cells; host or cells: HeLa S3

[6] = test system: JNK2, RIPK2, ERK2, ROCK2; experiment: immunoblot of IVA1/IVA2 eluates from V16742 matrix, HeLa lysate; type: binding, human
Procedure: The proteins retained on the beads were immunoblotted with specific antibodies for JNK2, RIPK2, ERK2 and ROCK2, the targets with affinities ranging from high to very low as identified/predicted by mass spectrometry.
Immunoblotting of affinity chromatography eluates from either IVA1 or IVA2 setting was performed with the following antibodies: Rabbit anti-casein kinase Iα, Rabbit anti-JNK2, Rabbit anti-ROCK-II (all from Cell Signaling Technology, Inc.), anti-GSK3β, anti-RIPK2, anti-GAK, anti-ERK2 (Santa Cruz)

[7] = target: T2, MASTL (Homo sapiens, UniProt Q96GX5); experiment: binding to immobilized V16742 (IVA1/IVA2, HeLa lysate, MS)
T2 construct: endogenous in cells; host or cells: HeLa S3
T2 sequence (Q96GX5 1-879): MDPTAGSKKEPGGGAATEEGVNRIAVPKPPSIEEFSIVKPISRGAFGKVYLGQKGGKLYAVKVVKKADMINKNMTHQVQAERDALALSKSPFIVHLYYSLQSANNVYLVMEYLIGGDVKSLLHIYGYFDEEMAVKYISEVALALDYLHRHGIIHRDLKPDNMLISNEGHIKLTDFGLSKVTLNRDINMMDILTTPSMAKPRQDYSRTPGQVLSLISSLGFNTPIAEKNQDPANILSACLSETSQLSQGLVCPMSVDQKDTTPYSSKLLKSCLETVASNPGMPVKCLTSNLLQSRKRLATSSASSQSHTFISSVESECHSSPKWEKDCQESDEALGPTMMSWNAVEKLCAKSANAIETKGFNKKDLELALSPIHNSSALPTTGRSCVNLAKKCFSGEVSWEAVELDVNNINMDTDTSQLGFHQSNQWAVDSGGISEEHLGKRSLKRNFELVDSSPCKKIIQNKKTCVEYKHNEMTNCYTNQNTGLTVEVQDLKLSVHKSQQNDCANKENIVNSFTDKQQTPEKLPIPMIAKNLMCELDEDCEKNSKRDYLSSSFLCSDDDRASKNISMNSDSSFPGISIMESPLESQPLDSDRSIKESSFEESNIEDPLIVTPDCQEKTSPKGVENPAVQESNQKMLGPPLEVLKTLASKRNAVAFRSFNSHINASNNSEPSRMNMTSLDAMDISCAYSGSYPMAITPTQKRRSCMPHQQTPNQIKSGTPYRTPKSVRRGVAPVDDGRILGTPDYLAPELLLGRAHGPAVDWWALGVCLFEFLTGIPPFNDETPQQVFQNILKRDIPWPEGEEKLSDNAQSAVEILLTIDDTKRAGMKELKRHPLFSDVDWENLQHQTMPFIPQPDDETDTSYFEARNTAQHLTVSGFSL

[8] = target: EphA2 (Homo sapiens, UniProt P29317); experiment: as above
[9] = target: ROCK2 (Homo sapiens, UniProt O75116); experiment: as above
[10] = single Kd value, obtained from only one experiment

Sequence of EphA2 (P29317 24-976): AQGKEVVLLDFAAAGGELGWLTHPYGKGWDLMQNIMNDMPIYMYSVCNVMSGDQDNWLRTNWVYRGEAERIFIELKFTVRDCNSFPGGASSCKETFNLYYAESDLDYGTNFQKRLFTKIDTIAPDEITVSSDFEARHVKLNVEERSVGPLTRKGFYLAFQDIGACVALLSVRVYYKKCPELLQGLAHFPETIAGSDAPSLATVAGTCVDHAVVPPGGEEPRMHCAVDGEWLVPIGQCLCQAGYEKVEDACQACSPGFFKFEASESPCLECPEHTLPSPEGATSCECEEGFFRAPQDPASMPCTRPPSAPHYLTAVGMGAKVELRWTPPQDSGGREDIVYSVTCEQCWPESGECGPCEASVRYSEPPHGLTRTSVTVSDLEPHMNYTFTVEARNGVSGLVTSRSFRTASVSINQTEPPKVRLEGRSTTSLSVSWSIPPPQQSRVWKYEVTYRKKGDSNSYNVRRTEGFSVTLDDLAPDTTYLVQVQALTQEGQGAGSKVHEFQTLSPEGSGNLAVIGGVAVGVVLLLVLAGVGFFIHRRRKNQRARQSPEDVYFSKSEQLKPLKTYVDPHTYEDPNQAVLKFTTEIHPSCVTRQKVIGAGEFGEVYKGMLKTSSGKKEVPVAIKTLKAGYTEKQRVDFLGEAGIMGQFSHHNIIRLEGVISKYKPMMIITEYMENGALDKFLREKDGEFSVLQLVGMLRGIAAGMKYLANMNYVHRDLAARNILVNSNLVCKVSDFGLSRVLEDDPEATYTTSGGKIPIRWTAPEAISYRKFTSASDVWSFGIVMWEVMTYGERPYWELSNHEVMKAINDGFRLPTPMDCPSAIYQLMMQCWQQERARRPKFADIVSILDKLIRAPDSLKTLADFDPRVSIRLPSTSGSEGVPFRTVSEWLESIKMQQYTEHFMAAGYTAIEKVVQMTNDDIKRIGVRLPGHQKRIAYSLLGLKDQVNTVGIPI
Sequence of CaMK2g (CAMK2G) (Q13555 whole entry): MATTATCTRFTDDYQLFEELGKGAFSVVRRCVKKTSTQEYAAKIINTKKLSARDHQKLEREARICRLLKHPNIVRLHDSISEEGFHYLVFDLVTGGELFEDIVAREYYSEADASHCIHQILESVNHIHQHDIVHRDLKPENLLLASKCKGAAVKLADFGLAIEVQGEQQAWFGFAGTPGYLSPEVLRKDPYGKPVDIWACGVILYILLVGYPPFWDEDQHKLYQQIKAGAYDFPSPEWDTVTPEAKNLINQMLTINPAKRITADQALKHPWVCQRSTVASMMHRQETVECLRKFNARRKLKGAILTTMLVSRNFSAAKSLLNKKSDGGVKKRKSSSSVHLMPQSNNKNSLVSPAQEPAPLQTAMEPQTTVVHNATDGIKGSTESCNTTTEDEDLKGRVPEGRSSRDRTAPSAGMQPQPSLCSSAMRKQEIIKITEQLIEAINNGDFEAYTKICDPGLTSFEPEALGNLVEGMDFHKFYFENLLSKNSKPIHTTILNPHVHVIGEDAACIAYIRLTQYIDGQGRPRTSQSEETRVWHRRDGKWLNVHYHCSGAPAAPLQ
Sequence of GSK3A (P49840 whole entry): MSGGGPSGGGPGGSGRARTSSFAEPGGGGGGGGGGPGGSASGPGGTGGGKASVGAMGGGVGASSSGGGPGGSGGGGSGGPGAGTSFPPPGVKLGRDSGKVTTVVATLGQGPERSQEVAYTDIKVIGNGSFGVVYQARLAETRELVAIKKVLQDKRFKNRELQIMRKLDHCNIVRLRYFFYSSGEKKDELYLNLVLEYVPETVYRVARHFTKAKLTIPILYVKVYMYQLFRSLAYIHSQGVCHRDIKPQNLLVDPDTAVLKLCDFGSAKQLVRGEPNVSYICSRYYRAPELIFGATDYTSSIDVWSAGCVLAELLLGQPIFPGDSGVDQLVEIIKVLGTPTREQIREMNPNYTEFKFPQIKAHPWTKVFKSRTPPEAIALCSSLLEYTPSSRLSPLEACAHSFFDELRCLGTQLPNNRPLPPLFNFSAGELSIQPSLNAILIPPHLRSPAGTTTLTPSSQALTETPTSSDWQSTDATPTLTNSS
Sequence of NUDT12 (Q9BQG2 whole entry): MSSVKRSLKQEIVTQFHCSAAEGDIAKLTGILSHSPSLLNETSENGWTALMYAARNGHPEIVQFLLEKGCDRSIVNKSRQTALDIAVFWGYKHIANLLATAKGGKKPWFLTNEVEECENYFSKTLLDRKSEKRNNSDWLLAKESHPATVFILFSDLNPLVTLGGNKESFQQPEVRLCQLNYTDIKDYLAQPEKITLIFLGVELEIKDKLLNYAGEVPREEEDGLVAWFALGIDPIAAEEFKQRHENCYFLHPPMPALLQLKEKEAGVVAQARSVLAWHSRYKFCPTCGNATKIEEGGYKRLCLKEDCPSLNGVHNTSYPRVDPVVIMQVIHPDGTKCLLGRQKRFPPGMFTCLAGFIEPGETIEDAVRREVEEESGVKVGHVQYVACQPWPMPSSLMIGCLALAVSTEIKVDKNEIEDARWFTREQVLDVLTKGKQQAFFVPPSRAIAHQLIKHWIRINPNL
T1 sequence (O43683 whole entry): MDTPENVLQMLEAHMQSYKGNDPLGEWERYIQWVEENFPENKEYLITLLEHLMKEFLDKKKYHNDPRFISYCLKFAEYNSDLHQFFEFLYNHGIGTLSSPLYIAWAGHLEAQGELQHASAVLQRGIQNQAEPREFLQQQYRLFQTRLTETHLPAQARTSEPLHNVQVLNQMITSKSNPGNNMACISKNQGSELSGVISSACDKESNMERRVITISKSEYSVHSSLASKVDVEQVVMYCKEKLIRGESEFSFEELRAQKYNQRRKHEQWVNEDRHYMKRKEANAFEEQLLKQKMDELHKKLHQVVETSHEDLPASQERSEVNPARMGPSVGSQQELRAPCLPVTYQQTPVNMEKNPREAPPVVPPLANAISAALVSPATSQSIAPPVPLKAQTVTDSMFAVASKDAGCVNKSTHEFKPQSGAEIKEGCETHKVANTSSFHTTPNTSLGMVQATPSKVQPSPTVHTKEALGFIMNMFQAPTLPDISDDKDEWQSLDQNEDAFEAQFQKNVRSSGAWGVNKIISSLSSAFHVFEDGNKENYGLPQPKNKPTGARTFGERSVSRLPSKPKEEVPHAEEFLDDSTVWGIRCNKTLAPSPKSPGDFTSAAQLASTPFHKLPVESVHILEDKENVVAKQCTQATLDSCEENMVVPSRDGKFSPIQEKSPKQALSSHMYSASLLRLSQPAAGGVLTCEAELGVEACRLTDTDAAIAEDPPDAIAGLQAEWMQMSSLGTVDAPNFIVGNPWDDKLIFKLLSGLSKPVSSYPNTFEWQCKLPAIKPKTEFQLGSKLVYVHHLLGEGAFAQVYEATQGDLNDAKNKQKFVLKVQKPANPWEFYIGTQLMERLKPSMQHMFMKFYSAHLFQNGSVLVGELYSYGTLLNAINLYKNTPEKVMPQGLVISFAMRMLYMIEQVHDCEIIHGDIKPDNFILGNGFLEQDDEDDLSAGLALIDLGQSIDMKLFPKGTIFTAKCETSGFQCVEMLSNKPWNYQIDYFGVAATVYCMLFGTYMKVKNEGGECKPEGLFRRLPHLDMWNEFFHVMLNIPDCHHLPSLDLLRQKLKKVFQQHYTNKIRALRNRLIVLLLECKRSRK
Sequence of CK1e (P49674 whole entry): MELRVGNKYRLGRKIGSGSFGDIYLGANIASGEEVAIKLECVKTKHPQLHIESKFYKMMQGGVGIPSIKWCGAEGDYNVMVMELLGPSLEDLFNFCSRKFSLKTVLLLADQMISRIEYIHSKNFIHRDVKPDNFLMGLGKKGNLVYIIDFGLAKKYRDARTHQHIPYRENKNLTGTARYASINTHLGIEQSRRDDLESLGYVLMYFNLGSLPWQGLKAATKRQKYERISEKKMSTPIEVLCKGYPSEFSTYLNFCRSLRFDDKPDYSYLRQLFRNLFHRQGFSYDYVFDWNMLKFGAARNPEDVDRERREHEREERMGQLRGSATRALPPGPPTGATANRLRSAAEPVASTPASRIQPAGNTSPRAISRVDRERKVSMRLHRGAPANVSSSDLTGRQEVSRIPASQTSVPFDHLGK

In the case of CC(C)n1c(=O)ccc2cnc(Nc3ccc(OCCN)cc3)nc21 [compound 16742], the “Percent bound at 1.87 μM 16742 conc” value ([1]; EXPERIMENT 1) was 7.34%, the “Percent bound at 8.74 μM 16742 conc” value ([1]; EXPERIMENT 1) was 35.37% and the “Percent bound at 52 μM 16742 conc” value ([1]; EXPERIMENT 1) was 84.48%. For the same compound, the pKd ([1]; EXPERIMENT 1, read-out: Kd) was 4.84, the “Percent bound at 1.87 μM 16742 conc” value ([1]; EXPERIMENT 2) was 4.30% and the “Percent bound at 8.74 μM 16742 conc” value ([1]; EXPERIMENT 2) was 29.09%. The “Percent bound at 52 μM 16742 conc” value ([1]; EXPERIMENT 2) was 78.29%, the pKd ([1]; EXPERIMENT 2, read-out: Kd) was 4.73 and the pKd ([1]; read-out: Kd Avg) was 4.78. For the same compound, the pKd [2] was 4.89, the “Percent bound at 1.87 μM 16742 conc” value ([2]; CK1e, EXPERIMENT 1) was 6.91% and the “Percent bound at 8.74 μM 16742 conc” value ([2]; CK1e, EXPERIMENT 1) was 34.02%. For the same compound, the “Percent bound at 52 μM 16742 conc” value ([2]; CK1e, EXPERIMENT 1) was 79.64%, the “Percent bound at 1.87 μM 16742 conc” value ([2]; CK1e, EXPERIMENT 2) was 7.41% and the “Percent bound at 8.74 μM 16742 conc” value ([2]; CK1e, EXPERIMENT 2) was 37.16%. The “Percent bound at 52 μM 16742 conc” value ([2]; CK1e, EXPERIMENT 2) was 88.21%, the pKd ([2]; Kd, CK1e) was 4.84 and the pKd ([2]; Kd, CK1e, EXPERIMENT 1) was 4.79.
COc1cc2ncnc(Nc3ccc(F)c(Cl)c3)c2cc1OCCCN1CCOCC1 [gefitinib] was tested, and the “rAVERAGE (10 nM/0 nM Gef.)” value [3] was 0.95, the “rAVERAGE (100 nM/0 nM Gef.)” value [3] was 1.08 and the “rAVERAGE (1000 nM/0 nM Gef.)” value [3] was 1.01. For the same compound, the “rAVERAGE (10000 nM/0 nM Gef.)” value [3] was 0.92, the “rAVERAGE (10 nM/0 nM Gef.)” value [4] was 1.04 and the “rAVERAGE (100 nM/0 nM Gef.)” value [4] was 0.93. For the same compound, the “rAVERAGE (1000 nM/0 nM Gef.)” value [4] was 0.92 and the “rAVERAGE (10000 nM/0 nM Gef.)” value [4] was 0.09.
For CC(C)n1c(=O)ccc2cnc(Nc3ccc(OCCN)cc3)nc21 [V16742], the “Percent bound at various 16742 conc” value ([5]; Experiment 1, 1.87 μM 16742) was 2.46%, the “Percent bound at various 16742 conc” value ([5]; Experiment 1, 8.74 μM 16742) was 11.95% and the “Percent bound at various 16742 conc” value ([5]; Experiment 1, 52 μM 16742) was 50.46%. The “Percent bound at various 16742 conc” value ([5]; Experiment 2, 52 μM 16742) was 47.87%, the pKd [5, 10] was 4.27 and the “interaction of kinases with V16742 matrix, immunoblot” value [6] was “specifically interacted with the V16742 matrix”. For the same compound, the “Percent bound at various 16742 conc” value ([7]; Experiment 1, 1.87 μM 16742) was 0.55%, the “Percent bound at various 16742 conc” value ([7]; Experiment 1, 8.74 μM 16742) was 9.59% and the “Percent bound at various 16742 conc” value ([7]; Experiment 1, 52 μM 16742) was 51.63%. The “Percent bound at various 16742 conc” value ([7]; Experiment 2, 52 μM 16742) was 62.29%, the pKd [7, 10] was 4.27 and the pKd [8] was 4.24. The “Percent bound at various 16742 conc” value ([8]; EphA2, Experiment 1, 1.87 μM 16742) was 3.91%, the “Percent bound at various 16742 conc” value ([8]; EphA2, Experiment 1, 8.74 μM 16742) was 13.88% and the “Percent bound at various 16742 conc” value ([8]; EphA2, Experiment 1, 52 μM 16742) was 54.66%. The “Percent bound at various 16742 conc” value ([8]; EphA2, Experiment 2, 1.87 μM 16742) was 2.12%, the “Percent bound at various 16742 conc” value ([8]; EphA2, Experiment 2, 8.74 μM 16742) was 7.66% and the “Percent bound at various 16742 conc” value ([8]; EphA2, Experiment 2, 52 μM 16742) was 43.73%. The pKd ([8]; Kd, EphA2, Experiment 1) was 4.34, the pKd ([8]; Kd, EphA2, Experiment 2) was 4.15 and the “affinity class of target for V16742” value [9] was “Very low affinity target not significantly enriched in IVA2”.
